From PMC10997755, “Discovery of a small-molecule inhibitor that traps Polθ on DNA and synergizes with PARP inhibitors” (Nature Communications, 2024)
Several values for one entry are separate records, joined by “and”; a condition that tells them apart may be missing. Equal entries are not always repeated. Entries after “also recorded” stand apart in the source; their conditions may differ.

Columns and labels:
LogP = format: physicochemical; details: method not stated
DLD1 Parental cells = assay: Clonogenic assay; format: cell-based; details: DLD1 PARENTAL, 3 treatments were given
Procedure, shortened: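 Colony formation by BRCA-deficient, PALB2-mutant and wild-type cells (300–1000 cells/well) and MEFs (300 cells/well) over 10–12 days, medium changed every 2 days. Colonies fixed, stained with 0.5% crystal violet and counted; IC50 from 3 or more independent experiments.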

Polθ-pol = biological target: T1, Polθ-pol (Homo sapiens, UniProt O75417); assay: Cy5 fluorescence Polθ-pol DNA synthesis (strand displacement) IC50 assay; format: biochemical; details: Polθ-pol DNA synthesis, Cy5 fluorescence
T1 construct: purified recombinant human Polθ-pol (comprising amino acid residues 1792–2590); made in house
T1 sequence (O75417 1792-2590): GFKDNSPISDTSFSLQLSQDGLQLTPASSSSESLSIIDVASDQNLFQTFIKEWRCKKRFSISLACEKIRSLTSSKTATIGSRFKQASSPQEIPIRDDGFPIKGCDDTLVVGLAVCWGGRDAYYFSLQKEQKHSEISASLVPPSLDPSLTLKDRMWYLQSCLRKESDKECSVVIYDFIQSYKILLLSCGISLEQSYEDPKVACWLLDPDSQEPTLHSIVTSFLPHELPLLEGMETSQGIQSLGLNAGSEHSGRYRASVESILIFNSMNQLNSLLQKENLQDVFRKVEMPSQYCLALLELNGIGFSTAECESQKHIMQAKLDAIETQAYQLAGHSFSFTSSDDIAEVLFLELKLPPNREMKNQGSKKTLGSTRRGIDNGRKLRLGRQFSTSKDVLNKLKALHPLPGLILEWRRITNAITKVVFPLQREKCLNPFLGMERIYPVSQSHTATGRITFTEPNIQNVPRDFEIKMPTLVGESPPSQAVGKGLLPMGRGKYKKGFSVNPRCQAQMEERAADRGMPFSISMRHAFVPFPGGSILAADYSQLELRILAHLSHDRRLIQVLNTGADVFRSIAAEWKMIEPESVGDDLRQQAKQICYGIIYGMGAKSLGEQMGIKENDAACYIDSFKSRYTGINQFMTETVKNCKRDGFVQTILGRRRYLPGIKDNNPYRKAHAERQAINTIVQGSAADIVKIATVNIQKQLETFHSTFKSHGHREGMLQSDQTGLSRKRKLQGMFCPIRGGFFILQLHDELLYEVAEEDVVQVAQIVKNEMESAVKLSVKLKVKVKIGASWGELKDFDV
Procedure, shortened: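 Recombinant human Polθ-pol (aa 1792–2590, 5 nM) extends 60 nM Cy5/quencher primer-template with 50 uM dNTPs in 25 mM Tris pH 7.8, 10 mM MgCl2, 2.5% DMSO at 37 °C. After 18 min, stopped with 20 mM EDTA; Cy5 fluorescence read, 7-point series in triplicate, inhibition from the mean.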

DLD1 BRCA2 -/- cells = assay: Clonogenic assay; format: cell-based; details: for Average number of colonies counted / Normalized (colonies): DLD1 BRCA2 NULL, 3 treatments were given; for average / percent suvival / replicate counts: DLD1-BRCA2 null cells
Procedure, shortened: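 Cells seeded at low density (300–1000 per well, by plate size and genotype), medium changed every 2 days, colonies grown 10–12 days. Fixed in water:ethanol:acetic acid, stained with 0.5% crystal violet, then counted; IC50 from ≥3 independent experiments, mean ± SEM.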

[1] = RTX-152 1.25 micro M + OLA 3.125 nano M
[2] = RTX-152 1.25 micro M + OLA 6.25 nano M
[3] = RTX-152 1.25 micro M + OLA 12.50 nano M
[4] = RTX-152 1.25 micro M + OLA 25.00 nano M
[5] = RTX-152 1.25 micro M + OLA 50.00 nano M
[6] = RTX-152 1.25 micro M + OLA 100.00 nano M
[7] = RTX-152 1.25 micro M, OLA 0.00 nano M
[8] = RTX-152 2.5 micro M + OLA 3.125 nano M
[9] = RTX-152 2.5 micro M + OLA 6.25 nano M
[10] = RTX-152 2.5 micro M + OLA 12.50 nano M
[11] = RTX-152 2.5 micro M + OLA 25.00 nano M
[12] = RTX-152 2.5 micro M + OLA 50.00 nano M
[13] = RTX-152 2.5 micro M + OLA 100.00 nano M
[14] = RTX-152 2.5 micro M, OLA 0.00 nano M
[15] = RTX-152 5 micro M + OLA 3.125 nano M
[16] = RTX-152 5 micro M + OLA 6.25 nano M
[17] = RTX-152 5 micro M + OLA 12.50 nano M
[18] = RTX-152 5 micro M + OLA 25.00 nano M
[19] = RTX-152 5 micro M + OLA 50.00 nano M
[20] = RTX-152 5 micro M + OLA 100.00 nano M
[21] = RTX-152 5 micro M, OLA 0.00 nano M

CN1CCN(c2cc(C(F)(F)F)cc(C(F)(F)F)c2OC(=O)N(C)c2ccc(F)cc2)C1=O [RTx-152]
logP (LogP): 4.2 | Average number of colonies counted (DLD1 Parental cells; 2.5 micro M): 115 | Normalized (colonies) (DLD1 Parental cells; 2.5 micro M): 97.4576 | Normalized (colonies) (DLD1 Parental cells; 5 micro M): 97.4576 | Normalized (colonies) (DLD1 Parental cells; 10 micro M): 95.7627 | Average number of colonies counted (DLD1 Parental cells; 20 micro M): 113 | Normalized (colonies) (DLD1 Parental cells; 20 micro M): 95.7627 | IC50 (Polθ-pol): 6 nM and 6.2 nM and 4 to 6 nM | Average number of colonies counted (DLD1 BRCA2 -/- cells; 2.5 micro M): 47.3333 | Normalized (colonies) (DLD1 BRCA2 -/- cells; 2.5 micro M): 65.5172 | Average number of colonies counted (DLD1 BRCA2 -/- cells; 5 micro M): 40.3333 | Normalized (colonies) (DLD1 BRCA2 -/- cells; 5 micro M): 54.4828 | Average number of colonies counted (DLD1 BRCA2 -/- cells; 10 micro M): 22.6667 | Normalized (colonies) (DLD1 BRCA2 -/- cells; 10 micro M): 31.0345 | Average number of colonies counted (DLD1 BRCA2 -/- cells; 20 micro M): 15 | Normalized (colonies) (DLD1 BRCA2 -/- cells; 20 micro M): 20.6897 | IC50 (DLD1 BRCA2 -/- cells; Homo sapiens, DLD-1, read-out: IC50 clonogenic survival): ~6000 nM | average (DLD1 BRCA2 -/- cells; [1]): 78.6667 | percent suvival (DLD1 BRCA2 -/- cells; [1]): 75.8842% | replicate counts (DLD1 BRCA2 -/- cells; [1]): 75 and 82 and 79 | average (DLD1 BRCA2 -/- cells; [2]): 66.6667 | percent suvival (DLD1 BRCA2 -/- cells; [2]): 64.3087% | replicate counts (DLD1 BRCA2 -/- cells; [2]): 67 and 70 and 63 | average (DLD1 BRCA2 -/- cells; [3]): 40 | percent suvival (DLD1 BRCA2 -/- cells; [3]): 38.5852% | replicate counts (DLD1 BRCA2 -/- cells; [3]): 36 and 44 and 40 | average (DLD1 BRCA2 -/- cells; [4]): 32.6667 | percent suvival (DLD1 BRCA2 -/- cells; [4]): 31.5113% | replicate counts (DLD1 BRCA2 -/- cells; [4]): 35 and 31 and 32 | average (DLD1 BRCA2 -/- cells; [5]): 20 | percent suvival (DLD1 BRCA2 -/- cells; [5]): 19.2926% | replicate counts (DLD1 BRCA2 -/- cells; [5]): 22 and 20 and 18 | average (DLD1 BRCA2 -/- cells; [6]): 11 | percent suvival (DLD1 BRCA2 -/- cells; [6]): 10.6109% | replicate counts (DLD1 BRCA2 -/- cells; [6]): 8 and 11 and 14 | average (DLD1 BRCA2 -/- cells; [7]): 95 | percent suvival (DLD1 BRCA2 -/- cells; [7]): 91.6399% | replicate counts (DLD1 BRCA2 -/- cells; [7]): 91 and 96 and 98 | average (DLD1 BRCA2 -/- cells; [8]): 71 | percent suvival (DLD1 BRCA2 -/- cells; [8]): 68.4887% | replicate counts (DLD1 BRCA2 -/- cells; [8]): 68 and 70 and 75 | average (DLD1 BRCA2 -/- cells; [9]): 51 | percent suvival (DLD1 BRCA2 -/- cells; [9]): 49.1961% | replicate counts (DLD1 BRCA2 -/- cells; [9]): 54 and 47 and 52 | average (DLD1 BRCA2 -/- cells; [10]): 37.6667 | percent suvival (DLD1 BRCA2 -/- cells; [10]): 36.3344% | replicate counts (DLD1 BRCA2 -/- cells; [10]): 35 and 40 and 38 | average (DLD1 BRCA2 -/- cells; [11]): 21.6667 | percent suvival (DLD1 BRCA2 -/- cells; [11]): 20.9003% | replicate counts (DLD1 BRCA2 -/- cells; [11]): 26 and 20 and 19 | average (DLD1 BRCA2 -/- cells; [12]): 13 | percent suvival (DLD1 BRCA2 -/- cells; [12]): 12.5402% | replicate counts (DLD1 BRCA2 -/- cells; [12]): 10 and 16 and 13 | average (DLD1 BRCA2 -/- cells; [13]): 3.667 | percent suvival (DLD1 BRCA2 -/- cells; [13]): 3.537% | replicate counts (DLD1 BRCA2 -/- cells; [13]): 7 and 2 (2×) | average (DLD1 BRCA2 -/- cells; [14]): 80 | percent suvival (DLD1 BRCA2 -/- cells; [14]): 77.1704% | replicate counts (DLD1 BRCA2 -/- cells; [14]): 82 and 80 and 78 | average (DLD1 BRCA2 -/- cells; [15]): 45.3333 | percent suvival (DLD1 BRCA2 -/- cells; [15]): 43.7299% | replicate counts (DLD1 BRCA2 -/- cells; [15]): 49 and 42 and 45 | average (DLD1 BRCA2 -/- cells; [16]): 38 | percent suvival (DLD1 BRCA2 -/- cells; [16]): 36.6559% | replicate counts (DLD1 BRCA2 -/- cells; [16]): 38 and 32 and 44 | average (DLD1 BRCA2 -/- cells; [17]): 19.6667 | percent suvival (DLD1 BRCA2 -/- cells; [17]): 18.9711% | replicate counts (DLD1 BRCA2 -/- cells; [17]): 19 and 22 and 18 | average (DLD1 BRCA2 -/- cells; [18]): 7.333 | percent suvival (DLD1 BRCA2 -/- cells; [18]): 7.074% | replicate counts (DLD1 BRCA2 -/- cells; [18]): 10 and 8 and 4 | average (DLD1 BRCA2 -/- cells; [19]): 1.667 | percent suvival (DLD1 BRCA2 -/- cells; [19]): 1.608% | replicate counts (DLD1 BRCA2 -/- cells; [19]): 3 and 1 (2×) | average (DLD1 BRCA2 -/- cells; [20]): 1 | percent suvival (DLD1 BRCA2 -/- cells; [20]): 0.9646% | replicate counts (DLD1 BRCA2 -/- cells; [20]): 1 and 0 and 2 | average (DLD1 BRCA2 -/- cells; [21]): 73 | percent suvival (DLD1 BRCA2 -/- cells; [21]): 70.418% | replicate counts (DLD1 BRCA2 -/- cells; [21]): 70 and 78 and 71 | potency in BRCA2-null cells compared with RTx-161 (DLD1 BRCA2 -/- cells; clonogenic survival): moderately higher IC50 | combination with Olaparib (DLD1 BRCA2 -/- cells; clonogenic survival, Combenefit synergy): synergistic activity | selective killing / synthetic lethality in BRCA2-null DLD1 cells (DLD1 BRCA2 -/- cells; colony survival, versus BRCA2-WT): selective killing; also recorded: induction of synthetic lethality
